Measured values: ChEMBL document CHEMBL6120946, “From Hit to Lead: Discovery of First-In-Class Furanone Glycoside D228 Derived from Chimonanthus salicifolius for the Treatment of Inflammatory Bowel Disease” (J Med Chem, 2024)
The source made the active and inactive calls. The rule behind the calls is not given here.

How the values were obtained:
Mus musculus [1] = assay: Antiinflammatory activity in DSS-induced male C57BL/6 mouse model assessed as inhibition of IL-17A level in colon at 50 to 200 microM/Kg; format: functional, organism-based; conditions: dose 50-200 µM/Kg
Mus musculus [2] = assay: Antiinflammatory activity in DSS-induced male C57BL/6 mouse model of inflammatory bowel disease assessed as inhibition of MPO expression at 50 to 200 microM/Kg, po by immunohistochemical analysis; format: functional, organism-based; conditions: dose 50-200 µM/Kg
Mus musculus [3] = species on record: Mus musculus; assay: Antiinflammatory activity in DSS-induced male C57BL/6 mouse model of inflammatory bowel disease assessed as reduction in TLR4 level; format: functional, organism-based
Mus musculus [4] = assay: Antiinflammatory activity in DSS-induced male C57BL/6 mouse model of inflammatory bowel disease assessed as increase in colon length at 60 mg/kg/day, po via gavage measured upto 14 days relative to control; format: functional; conditions: time <= 14 day
Mus musculus [5] = assay: Antiinflammatory activity in DSS-induced male C57BL/6 mouse model assessed as inhibition of TNF-alpha level in colon at 50 to 200 microM/Kg; format: functional, organism-based; conditions: dose 50-200 µM/Kg
Mus musculus [6] = assay: Antiinflammatory activity in DSS-induced male C57BL/6 mouse model of inflammatory bowel disease assessed as recovery from body weight loss at 10 mg/kg/day, ip measured after 14 days relative to control; format: functional; conditions: time 14 day
Mus musculus [7] = species on record: Mus musculus; assay: Antiinflammatory activity in DSS-induced male C57BL/6 mouse model of inflammatory bowel disease assessed as reduction in TLR8 level; format: functional, organism-based
Mus musculus [8] = assay: Antiinflammatory activity in DSS-induced male C57BL/6 mouse model of inflammatory bowel disease assessed as recovery from body weight loss at 40 mg/kg/day, ip measured after 14 days relative to control; format: functional; conditions: time 14 day
[9] = Acute toxicity in female Kunming mouse assessed as effect on body weight loss 5 g/Kg, po measured after 5 weeks; format: organism-based; conditions: in vivo, 5000 mg/kg, 840 h
[10] = Toxicity in female Kunming mouse assessed as change in food intake at 100 to 500 mg/kg/day, po measured after 5 weeks; format: organism-based; conditions: in vivo, 840 h, dose 100-500 mg/kg/day
Mus musculus [11] = assay: Antiinflammatory activity in DSS-induced male C57BL/6 mouse model of inflammatory bowel disease assessed as amelioration of crypts disruption at 50 to 100 microM/Kg by H and E staining based analysis; format: functional, organism-based; conditions: dose 50-100 µM/Kg
[12] = Toxicity in male Kunming mouse assessed as effect on kidney to body weight ratio at 100 to 500 mg/kg/day, po measured after 5 weeks; format: organism-based; conditions: in vivo, 840 h, dose 100-500 mg/kg/day
[13] = Toxicity in female Kunming mouse assessed as effect on lung at 100 to 500 mg/kg/day, po measured after 5 weeks by H and E staining based analysis; format: organism-based; conditions: in vivo, 840 h, dose 100-500 mg/kg/day
[14] = Acute toxicity in male Kunming mouse assessed as effect on liver 5 g/Kg, po measured after 5 weeks; format: organism-based; conditions: in vivo, 5000 mg/kg, 840 h
[15] = Toxicity in female Kunming mouse assessed as effect on TBIL level in serum at 100 to 500 mg/kg/day, po measured after 5 weeks; format: organism-based; conditions: in vivo, 840 h, dose 100-500 mg/kg/day
[16] = Metabolic stability in human plasma assessed as half life at pH 7.4 measured upto 60 mins by HPLC-MS analysis; format: ADME, cell-free
[17] = Toxicity in male Kunming mouse assessed as effect on lung to body weight ratio at 100 to 500 mg/kg/day, po measured after 5 weeks; format: organism-based; conditions: in vivo, 840 h, dose 100-500 mg/kg/day
[18] = Toxicity in male Kunming mouse assessed as effect on ALP level in serum at 100 to 500 mg/kg/day, po measured after 5 weeks; format: organism-based; conditions: in vivo, 840 h, dose 100-500 mg/kg/day
[19] = Toxicity in male Kunming mouse assessed as effect on T-CHO level in serum at 100 to 500 mg/kg/day, po measured after 5 weeks; format: organism-based; conditions: in vivo, 840 h, dose 100-500 mg/kg/day
[20] = Toxicity in male Kunming mouse assessed as lethal dose administered as po measured after 5 weeks; format: organism-based; conditions: in vivo
[21] = Toxicity in male Kunming mouse assessed as effect on CREA level in serum at 100 to 500 mg/kg/day, po measured after 5 weeks; format: organism-based; conditions: in vivo, 840 h, dose 100-500 mg/kg/day
[22] = Genotoxicity in Salmonella typhimurium by Ames test; format: toxicity; conditions: salmonella enterica subsp. enterica serovar typhimurium
Mus musculus [23] = assay: Antiinflammatory activity in DSS-induced male C57BL/6 mouse model of inflammatory bowel disease assessed as downregulation of TRAF6 expression at 50 to 100 microM/Kg by Western blot analysis; format: functional, organism-based; conditions: dose 50-100 µM/Kg
Mus musculus [24] = assay: Antiinflammatory activity in DSS-induced male C57BL/6 mouse model of inflammatory bowel disease assessed as amelioration of structural loss of colon at 50 to 100 microM/Kg by H and E staining based analysis; format: functional, organism-based; conditions: dose 50-100 µM/Kg
[25] = Toxicity in female Kunming mouse assessed as effect on TP level in serum at 100 to 500 mg/kg/day, po measured after 5 weeks; format: organism-based; conditions: in vivo, 840 h, dose 100-500 mg/kg/day
Mus musculus [26] = assay: Antiinflammatory activity in male C57BL/6 mouse model of inflammatory bowel disease assessed as recovery of DSS-induced body weight loss at 40 mg/kg/day, po via gavage measured after 14 days relative to control; format: functional; conditions: time 14 day
[27] = Toxicity in male Kunming mouse assessed as effect on Na inorganic salt level in serum at 100 to 500 mg/kg/day, po measured after 5 weeks; format: organism-based; conditions: in vivo, 840 h, dose 100-500 mg/kg/day
[28] = Toxicity in female Kunming mouse assessed as effect on K inorganic salt level in serum at 100 to 500 mg/kg/day, po measured after 5 weeks; format: organism-based; conditions: in vivo, 840 h, dose 100-500 mg/kg/day
Mus musculus [29] = assay: Antiinflammatory activity in DSS-induced male C57BL/6 mouse model of inflammatory bowel disease assessed as reduction of bloody stool at 22.5 to 45 mg/kg/day, po via gavage measured upto 14 days; format: functional, organism-based; conditions: dose 22.5-45 mg/kg/day, time <= 14.0 day
[30] = Acute toxicity in male Kunming mouse assessed as effect on spleen 5 g/Kg, po measured after 5 weeks; format: organism-based; conditions: in vivo, 5000 mg/kg, 840 h
[31] = Acute toxicity in female Kunming mouse assessed as effect on lung 5 g/Kg, po measured after 5 weeks; format: organism-based; conditions: in vivo, 5000 mg/kg, 840 h
Mus musculus [32] = assay: Antiinflammatory activity in DSS-induced male C57BL/6 mouse model of inflammatory bowel disease assessed as upregulation of ZO-1 expression in colon at 50 to 100 microM/Kg by immunohistochemical analysis; format: functional, organism-based; conditions: dose 50-100 µM/Kg
[33] = Toxicity in female Kunming mouse assessed as effect on spleen at 100 to 500 mg/kg/day, po measured after 5 weeks by H and E staining based analysis; format: organism-based; conditions: in vivo, 840 h, dose 100-500 mg/kg/day
[34] = Toxicity in female Kunming mouse assessed as effect on Cl inorganic salt level in serum at 100 to 500 mg/kg/day, po measured after 5 weeks; format: organism-based; conditions: in vivo, 840 h, dose 100-500 mg/kg/day
[35] = Toxicity in female Kunming mouse assessed as effect on T-CHO level in serum at 100 to 500 mg/kg/day, po measured after 5 weeks; format: organism-based; conditions: in vivo, 840 h, dose 100-500 mg/kg/day
[36] = Toxicity in female Kunming mouse assessed as effect on liver at 100 to 500 mg/kg/day, po measured after 5 weeks by H and E staining based analysis; format: organism-based; conditions: in vivo, 840 h, dose 100-500 mg/kg/day
[37] = Toxicity in male Kunming mouse assessed as effect on kidney at 100 to 500 mg/kg/day, po measured after 5 weeks by H and E staining based analysis; format: organism-based; conditions: in vivo, 840 h, dose 100-500 mg/kg/day
Mus musculus [38] = assay: Antiinflammatory activity in DSS-induced male C57BL/6 mouse model of inflammatory bowel disease assessed as increase in colon length at 45 mg/kg/day, po via gavage measured upto 14 days relative to control; format: functional; conditions: time <= 14 day

Compound: CC(C)=C1OC(C)=C(O[C@@H]2O[C@H](CO)[C@@H](O)[C@H](O)[C@H]2O)C1=O
- Activity (Mus musculus [1]): Active
- Activity (Mus musculus [2]): Active
- Activity (Mus musculus [3]): Active
- Activity (Mus musculus [4]): 73.4%
- Activity (Mus musculus [5]): Active
- Activity (Mus musculus [6]): 37.5%
- Activity (Mus musculus [7]): Active
- Activity (Mus musculus [8]): 56.2%

Compound: CC(=O)OC[C@H]1O[C@@H](OC2=C(C)OC(=C(C)C)C2=O)[C@H](OC(C)=O)[C@@H](OC(C)=O)[C@@H]1OC(C)=O
- Activity [9]: Non-toxic
- Activity [10]: Non-toxic
- Activity (Mus musculus [11]): Active
- Activity [12]: Non-toxic
- Activity [13]: Non-toxic
- Activity [14]: Non-toxic
- Activity [15]: Non-toxic
- half-life [16]: 27.7 min
- Activity [17]: Non-toxic
- Activity [18]: Non-toxic
- Activity [19]: Non-toxic
- LD50 at 840 h [20]: > 500 mg/kg
- Activity [21]: Non-toxic
- Activity [22]: Non-toxic
- Activity (Mus musculus [23]): Active
- Activity (Mus musculus [24]): Active
- Activity [25]: Non-toxic
- Activity (Mus musculus [26]): 49.1%
- Activity [27]: Non-toxic
- Activity [28]: Non-toxic
- Activity (Mus musculus [29]): Active
- Activity [30]: Non-toxic
- Activity [31]: Non-toxic
- Activity (Mus musculus [32]): Active
- Activity [33]: Non-toxic
- Activity [34]: Non-toxic
- Activity [35]: Non-toxic
- Activity [36]: Non-toxic
- Activity [37]: Non-toxic
- Activity (Mus musculus [38]): 91.4%
